Holding throughout (format): functional
The subject of one test is Shigella sp. Briefly: Antibacterial activity against Shigella sp. after 48 hrs by agar well diffusion method.
In the next test the test system is Vibrio cholerae. The test is described as follows: Antibacterial activity against Vibrio cholerae after 48 hrs by agar well diffusion method. In general terms: A growth-free zone around the sample is the usual read-out of agar diffusion tests.
For the next test, the system named is Klebsiella pneumoniae. Briefly: Antibacterial activity against Klebsiella pneumoniae after 48 hrs by agar well diffusion method.
The subject of another test is Staphylococcus aureus. Briefly: Antibacterial activity against Staphylococcus aureus after 48 hrs by agar well diffusion method.
The test system of the next test is Pseudomonas aeruginosa. The test is described as follows: Antibacterial activity against Pseudomonas aeruginosa after 48 hrs by agar well diffusion method.
Another test has as its system Escherichia coli. Briefly: Antibacterial activity against Escherichia coli after 48 hrs by agar well diffusion method.

The values below come from ChEMBL document CHEMBL1137000, “Synthesis and antibacterial activity of some novel imidazole-based dicationic quinolinophanes” (2009).

In brackets after ≈: the same amount, converted by molar mass.

A word on the MIC: it is the least concentration at which growth counts as inhibited. The low end stands for a more susceptible organism, the high end for a less susceptible organism. Regarding `[Br-].[Br-].c1cc2cc(c1)C[n+]1cn(c3ccccc31)Cc1cc3ccccc3nc1Oc1ccc3ccccc3c1-c1c(ccc3ccccc13)Oc1nc3ccccc3cc1Cn1c[n+](c3ccccc31)C2`, the minimum inhibitory concentration (MIC) against Shigella sp. was determined as 10 µg/mL; in the test with Vibrio cholerae, 10 µg/mL; in the test with Klebsiella pneumoniae, 15 µg/mL; with Staphylococcus aureus it was 15 µg/mL; in the test on Pseudomonas aeruginosa it was 25 µg/mL; in the test with Escherichia coli, 15 µg/mL.
Turning to `[Br-].[Br-].c1cc2nc(c1)C[n+]1cn(c3ccccc31)Cc1cc3ccccc3nc1Oc1ccccc1Oc1nc3ccccc3cc1Cn1c[n+](c3ccccc31)C2`, the MIC came out at 40 µg/mL in the test on Shigella sp.; 30 µg/mL against Vibrio cholerae; 45 µg/mL against Klebsiella pneumoniae; 35 µg/mL against Staphylococcus aureus; 25 µg/mL against Pseudomonas aeruginosa; 35 µg/mL with Escherichia coli.
`[Br-].[Br-].c1cc2nc(c1)C[n+]1ccn(c1)Cc1cc3ccccc3nc1Oc1ccc3ccccc3c1-c1c(ccc3ccccc13)Oc1nc3ccccc3cc1Cn1cc[n+](c1)C2`: the minimal inhibitory concentration (MIC) worked out at 10 µg/mL in the test on Shigella sp.; 10 µg/mL against Vibrio cholerae; 15 µg/mL in the test with Klebsiella pneumoniae; 15 µg/mL in the test with Staphylococcus aureus; 20 µg/mL with Pseudomonas aeruginosa; 10 µg/mL with Escherichia coli.
In the case of `[Br-].[Br-].c1cc2nc(c1)C[n+]1cn(c3ccccc31)Cc1cc3ccccc3nc1Oc1ccc3ccccc3c1-c1c(ccc3ccccc13)Oc1nc3ccccc3cc1Cn1c[n+](c3ccccc31)C2`, the MIC was determined as 45 µg/mL in the test on Shigella sp.; 45 µg/mL with Vibrio cholerae; 30 µg/mL in the test with Klebsiella pneumoniae; 45 µg/mL in the test with Staphylococcus aureus; 20 µg/mL with Pseudomonas aeruginosa; 30 µg/mL in the test with Escherichia coli.
Consider `[Br-].[Br-].c1cc2cc(c1)C[n+]1ccn(c1)Cc1cc3ccccc3nc1Oc1ccc3ccccc3c1-c1c(ccc3ccccc13)Oc1nc3ccccc3cc1Cn1cc[n+](c1)C2`, for which the MIC against Shigella sp. was determined as 15 µg/mL; with Vibrio cholerae, 10 µg/mL; against Klebsiella pneumoniae it was 10 µg/mL; with Staphylococcus aureus it was 15 µg/mL; with Pseudomonas aeruginosa it was 25 µg/mL; in the test with Escherichia coli, 20 µg/mL.
With `[Br-].[Br-].c1cc2cc(c1)C[n+]1ccn(c1)Cc1cc3ccccc3nc1Oc1ccccc1Oc1nc3ccccc3cc1Cn1cc[n+](c1)C2`, the MIC with Shigella sp. worked out at 45 µg/mL; in the test on Vibrio cholerae, 35 µg/mL; against Klebsiella pneumoniae, 40 µg/mL; in the test with Staphylococcus aureus, 45 µg/mL; with Pseudomonas aeruginosa it was 30 µg/mL; against Escherichia coli it was 30 µg/mL.
As to `[Br-].[Br-].c1cc2cc(c1)C[n+]1cn(c3ccccc31)Cc1cc3ccccc3nc1Oc1ccccc1Oc1nc3ccccc3cc1Cn1c[n+](c3ccccc31)C2`, the minimum inhibitory concentration (MIC) in the test with Shigella sp. is 55 µg/mL; in the test with Vibrio cholerae, 25 µg/mL; in the test with Klebsiella pneumoniae it was 60 µg/mL; against Staphylococcus aureus, 45 µg/mL; against Pseudomonas aeruginosa it was 40 µg/mL; against Escherichia coli, 30 µg/mL.
As to `[Br-].[Br-].c1cc2nc(c1)C[n+]1ccn(c1)Cc1cc3ccccc3nc1Oc1ccccc1Oc1nc3ccccc3cc1Cn1cc[n+](c1)C2`, the minimum inhibitory concentration (MIC) is 25 µg/mL against Shigella sp.; 15 µg/mL in the test on Vibrio cholerae; 25 µg/mL against Klebsiella pneumoniae; 30 µg/mL in the test with Staphylococcus aureus; 25 µg/mL against Pseudomonas aeruginosa; 20 µg/mL against Escherichia coli.
On to `CN[C@@H]1[C@H](O[C@H]2[C@H](O[C@H]3[C@H](O)[C@@H](O)[C@H](N=C(N)N)[C@@H](O)[C@@H]3N=C(N)N)O[C@@H](C)[C@]2(O)C=O)O[C@@H](CO)[C@H](O)[C@H]1O` [STREPTOMYCIN], for which the MIC against Shigella sp. came out at 25 µg/mL (≈ 43 µM); against Vibrio cholerae, 25 µg/mL (≈ 43 µM); in the test on Klebsiella pneumoniae, 25 µg/mL (≈ 43 µM); with Staphylococcus aureus it was 25 µg/mL (≈ 43 µM); against Pseudomonas aeruginosa it was 45 µg/mL (≈ 77.4 µM); in the test with Escherichia coli it was 20 µg/mL (≈ 34.4 µM).
